These results are taken from article PMC8165160, “Substrate Specificities and Inhibition Pattern of the Solute Carrier Family 10 Members NTCP, ASBT and SOAT” (Frontiers in Molecular Biosciences, 2021).

Structures are written as SMILES. Where two headings read alike, the source gives them in different places.

The target in assay [1] is T1, SOAT (Homo sapiens, UniProt Q3KNW5).
T1 construct: The full-length open reading frames of NTCP, ASBT, and SOAT were cloned; expressed in transfected cells; host or cells: Flp-In T-REX HEK293 (SOAT-HEK293), tetracycline-induced
T1 sequence (Q3KNW5 1-377): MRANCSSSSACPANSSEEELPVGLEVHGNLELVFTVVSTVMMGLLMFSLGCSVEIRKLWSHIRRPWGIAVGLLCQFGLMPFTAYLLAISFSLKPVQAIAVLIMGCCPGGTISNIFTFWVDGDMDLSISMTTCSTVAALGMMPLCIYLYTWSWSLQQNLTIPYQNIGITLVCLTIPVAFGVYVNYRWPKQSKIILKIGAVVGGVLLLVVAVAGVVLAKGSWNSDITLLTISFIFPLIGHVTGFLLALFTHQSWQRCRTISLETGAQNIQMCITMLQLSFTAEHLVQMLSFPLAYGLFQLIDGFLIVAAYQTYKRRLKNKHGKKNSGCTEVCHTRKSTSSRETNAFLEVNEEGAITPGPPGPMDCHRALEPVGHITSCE
Description: Transport inhibition in SOAT-HEK293 cells. The class given is cell-based. As to conditions: triterpenoid inhibitors, 10 min after 5 min preincubation. The procedure:
(§1) Cells were washed three times with PBS and were preincubated with the respective inhibitor in sodium transport buffer for 5 min at 37°C. Uptake was initiated by adding the respective radiolabeled substrate to the well and incubating for a fixed time as indicated in the figures at 37°C. Transport was terminated by removing the transport buffer and washing five-times with ice-cold PBS. Cell monolayers were lysed in 1 N NaOH with 0.1% SDS and the cell-associated radioactivity and protein content was determined as described above. For uptake inhibition with the myr-preS1 peptide the sodium transport buffer contained additionally MEM-amino acid solution (ThermoFisher) at 1:50 dilution.
(§2) All transport or inhibition graphs were generated with GraphPad Prism 6.0 (GraphPad). Determination of IC50 values was done by nonlinear regression analysis using the equation log (inhibitor) vs. response settings. If not stated otherwise in the legends all data represent means ± SD of at least triplicate determinations of representative experiments.
(§3) FIGURE 3 Inhibition of NTCP, ASBT, and SOAT with substrate inhibitors. Transport of [^3H]TC, [^3H]TLC, and [^3H]DHEAS was analyzed in NTCP-HEK293, ASBT-HEK293, and SOAT-HEK293 cells in the presence of the substrate inhibitors TC, TLC, and DHEAS at increasing concentrations ranging from 100 nM till 1000 µM. After 5 min of preincubation with the respective inhibitory compound, 200 nM [^3H]TLC, [^3H]TC or [^3H]DHEAS were added for additional 1 min and the cell lysates were analyzed by liquid scintillation counting. Unspecific uptake of HEK293-FlpIn cells was set to 0%. Carrier-specific uptake without inhibitor was set to 100%.
(§4) Transport of [^3H]TC, [^3H]TLC, and [^3H]DHEAS was analyzed in NTCP-HEK293, ASBT-HEK293, and SOAT-HEK293 cells in the presence of different supposed non-substrate triterpenoid inhibitors as indicated at increasing concentrations ranging from 100 nM till 1000 µM. After 5 min of preincubation with the respective inhibitory compound, 1 µM [^3H]TLC, [^3H]TC or [^3H]DHEAS were added for additional 10 min at 37°C and the cell lysates were analyzed by liquid scintillation counting. Experiments performed without inhibitor were set to 100%. Means of negative controls were subtracted to calculate net transport rates (expressed as percentage of control). Data represent means ± SD of quadruplicate determinations of representative experiments.

Assay [2] addresses T2, ASBT (Homo sapiens, UniProt Q12908).
T2 construct: The full-length open reading frames of NTCP, ASBT, and SOAT were cloned; expressed in transfected cells; host or cells: Flp-In T-REX HEK293 (ASBT-HEK293), tetracycline-induced
T2 sequence (Q12908 1-348): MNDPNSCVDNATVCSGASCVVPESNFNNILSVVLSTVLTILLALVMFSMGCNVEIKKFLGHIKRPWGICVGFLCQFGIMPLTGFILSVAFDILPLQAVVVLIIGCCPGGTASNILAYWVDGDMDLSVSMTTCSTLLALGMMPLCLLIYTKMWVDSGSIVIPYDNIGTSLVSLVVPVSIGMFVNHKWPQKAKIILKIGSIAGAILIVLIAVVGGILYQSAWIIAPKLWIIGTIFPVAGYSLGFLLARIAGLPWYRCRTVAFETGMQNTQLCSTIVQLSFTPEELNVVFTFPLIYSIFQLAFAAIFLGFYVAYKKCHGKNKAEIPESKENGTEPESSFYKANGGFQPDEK
The experiment in a line: Transport inhibition in ASBT-HEK293 cells. The class given is cell-based. The following applies: triterpenoid inhibitors, 10 min after 5 min preincubation. As for the experimental part:
as §1, §2, §3, §4

The target in assay [3] is T3, NTCP (Homo sapiens, UniProt Q14973).
T3 sequence (Q14973 1-349): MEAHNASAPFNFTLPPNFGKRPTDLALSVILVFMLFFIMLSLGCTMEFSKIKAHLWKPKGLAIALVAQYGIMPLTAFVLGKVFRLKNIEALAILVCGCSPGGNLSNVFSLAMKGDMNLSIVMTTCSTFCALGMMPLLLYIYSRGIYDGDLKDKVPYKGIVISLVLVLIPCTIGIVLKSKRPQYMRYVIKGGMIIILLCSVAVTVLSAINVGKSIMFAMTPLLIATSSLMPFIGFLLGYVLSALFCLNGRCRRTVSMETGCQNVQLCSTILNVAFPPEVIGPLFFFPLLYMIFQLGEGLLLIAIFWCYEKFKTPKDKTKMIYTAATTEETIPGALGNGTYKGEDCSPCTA
Description: Transport inhibition in NTCP-HEK293 cells. As to conditions: triterpenoid inhibitors, 10 min after 5 min preincubation.

For assay [4], the target named is T3, NTCP. Description: Substrate screening: sodium-dependent uptake of radiolabeled compounds in NTCP-HEK293 cells. The class given is cell-based. On the set-up: The full-length open reading frames of NTCP, ASBT, and SOAT were cloned; expressed in transfected cells; host or cells: Flp-In T-REX HEK293 (NTCP-HEK293), tetracycline-induced. The following applies: NTCP-HEK293, vs sodium-free control. The procedure: (§5) Stably SLC10 transporter transfected NTCP-HEK293, ASBT-HEK293, SOAT-HEK293 cells and the HEK293-FlpIn maternal cell line were seeded on 24-well plates (if not stated otherwise for individual assays). Well plates were coated with poly-D-lysine prior to seeding of 125,000 cells per well. Cells were grown with 1 ml of standard medium per well with or without tetracycline ([…]) for 72 h to induce carrier expression before respective assays were started. HEK293-FlpIn cells were cultivated with standard medium and served as control.
(§6) Uptake experiments were initiated by replacing the preincubation buffer by 500 μL transport buffer containing the radiolabeled test compound and were performed at 37°C. Transport was terminated by removing the transport buffer and washing five-times with ice-cold PBS. Cell monolayers were lysed in 1 N NaOH with 0.1% SDS and the cell-associated radioactivity was determined by liquid scintillation counting.
(§7) FIGURE 1 Comparative substrate screening for bile acids and sulfated steroids in NTCP-, ASBT-, and SOAT-HEK293 cells. Transport assays were performed with the indicated substrates in NTCP-HEK293, ABST-HEK293, SOAT-HEK293, and HEK293-FlpIn cells. Cells were washed and equilibrated with Na^+-containing transport buffer (filled bars) or with Na^+-free transport buffer (open bars) at 37°C. For uptake, cells were incubated with radiolabeled steroid compounds at a final concentration of 200 nM in Na^+-containing or Na^+-free transport buffer for 10 min. Radiolabeled bile acids were used at 1 µM concentrations and transport was analyzed over 30 min. HEK293-FlpIn cells served as additional controls. After the indicated time intervals, cells were washed with ice-cold PBS, lysed and subjected to liquid scintillation counting. […] 3-OH, trihydroxylated BAs; 2-OH, dihydroxylated BAs; 1-OH, monohydroxylated BAs.

The target of assay [5] is T3, NTCP. The experiment in a line: Transport kinetics (concentration-dependent uptake) in NTCP-HEK293 cells. The class given is cell-based. The following applies: uptake via NTCP, 1 min, 37°C. On the set-up: The full-length open reading frames of NTCP, ASBT, and SOAT were cloned; expressed in transfected cells; host or cells: Flp-In T-REX HEK293 (NTCP-HEK293), tetracycline-induced. As for the experimental part:
as §6
FIGURE 2 NTCP, ASBT, and SOAT transport kinetics. Concentration-dependent uptake was analyzed in NTCP-HEK293, ASBT-HEK293, and SOAT-HEK293 cells for the indicated substrates at increasing substrate concentrations. Stably transfected HEK293 cells were pretreated with 1 μg/ml tetracycline to induce carrier expression. HEK293-FlpIn cells were used as control. Uptake was analyzed for 1 min at 37°C. Afterward, the medium was removed and each cell monolayer was washed and processed to determine the protein content and cell-associated radioactivity. Specific uptake was calculated by subtracting non-specific uptake of the HEK293-FlpIn control cells (open squares) from uptake into carrier-overexpressing HEK293 cells (filled squares) and is shown by broken lines. The values represent means ± SD of duplicate experiments, each with triplicate determinations (n = 6).

Assay [6] addresses T1, SOAT. The experiment in a line: Substrate screening: sodium-dependent uptake of radiolabeled compounds in SOAT-HEK293 cells. As to conditions: radiolabeled steroid compounds 200 nM, 10 min, SOAT-HEK293, vs sodium-free control. The class given is cell-based. As for the experimental part:
as §5, §6, §7

The target in assay [7] is T1, SOAT. Also noted: method as in Geyer et al. (2007). As to conditions: uptake via SOAT, same SOAT-HEK293 cell line; ref Geyer et al. (2007); cited from earlier work.
Assay [8] addresses T2, ASBT. The experiment in a line: Substrate screening: sodium-dependent uptake of radiolabeled compounds in ASBT-HEK293 cells. As to conditions: radiolabeled bile acids 1 µM, 30 min, ASBT-HEK293, vs sodium-free control. The class given is cell-based. The procedure:
as §5, §6, §7

Where [9] appears, read: radiolabeled bile acids 1 µM, 30 min.

Consider `C=C(C)[C@@H]1CC[C@]2(CO)CC[C@]3(C)[C@H](CC[C@@H]4[C@@]5(C)CC[C@H](OC(=O)/C=C/c6ccc(O)c(O)c6)C(C)(C)[C@@H]5CC[C@]43C)[C@@H]12` [3-O-Caffeoyl betulin], for which the IC50 was determined as 301 µM on SOAT [1] (1 µM [3H]DHEAS, read-out: SOAT IC50, substrate [3H]DHEAS); 37.8 µM at SOAT [1] (1 µM [3H]TLC, read-out: SOAT IC50, substrate [3H]TLC); 499 µM at ASBT [2] (1 µM [3H]TC, read-out: ASBT IC50, substrate [3H]TC); 99.7 µM at ASBT [2] (1 µM [3H]TLC, read-out: ASBT IC50, substrate [3H]TLC); 49.1 µM at NTCP [3] (NTCP IC50, substrate [3H]DHEAS, 1 µM [3H]DHEAS); 129 µM at NTCP [3] (NTCP IC50, substrate [3H]TC, 1 µM [3H]TC). Besides, inhibition at NTCP [3] (NTCP IC50, substrate [3H]TLC, 1 µM [3H]TLC) was half-maximal at 2.1 µM (IC50).

As to `C=C(C)[C@@H]1CC[C@]2(CO)CC[C@]3(C)[C@H](CC[C@@H]4[C@@]5(C)CC[C@H](O)C(C)(C)[C@@H]5CC[C@]43C)[C@@H]12` [Betulin], the IC50 against SOAT [1] (SOAT IC50, substrate [3H]DHEAS, 1 µM [3H]DHEAS) was 912 µM; on SOAT [1] (SOAT IC50, substrate [3H]TLC, 1 µM [3H]TLC) it was 50.1 µM; on ASBT [2] (ASBT IC50, substrate [3H]TC, 1 µM [3H]TC), more than 1000 µM; on ASBT [2] (ASBT IC50, substrate [3H]TLC, 1 µM [3H]TLC), 192 µM.

For the compound `C[C@]12CC[C@@H]3c4ccc(OS(=O)(=O)O)cc4CC[C@H]3[C@@H]1CCC2=O` [E1S, Estrone-3-sulfate], the “Transport activity grading NTCP (mean uptake)” value (shortened to “Transport activity grading NTCP”) at NTCP [4] (radiolabeled steroid compounds 200 nM, 10 min) is “++ (“++” for values between 10 and 100)”. In addition, on NTCP [5], the “Apparent K m” value was 57.6 ± 11.3 µM and the V max was found to be 2367 ± 170.8 pmol/mg protein/min. The “Transport activity grading SOAT (mean uptake)” value at SOAT [6] is on record as “+ (Mean uptake “+” for values below 10)”. Besides, at SOAT [7], the “Apparent K m” value is 12.0 ± 2.3 µM and the V max is recorded as 585 ± 34 pmol/mg protein/min.

Regarding `C[C@H](CCC(=O)NCCS(=O)(=O)O)[C@H]1CC[C@H]2[C@@H]3CC[C@@H]4C[C@H](O)CC[C@]4(C)[C@H]3C[C@H](O)[C@]12C` [Taurodeoxycholic acid], the “Transport activity grading NTCP” value on NTCP [4] (setting [9]) is reported as “+++ (“+++” for values above 1000 pmol/mg protein/30 min)”. Besides, the “Transport activity grading ASBT (mean uptake)” value at ASBT [8] was “++ (“++” for values between 500 and 1000)”.

Turning to `C[C@H](CCC(=O)NCCS(=O)(=O)O)[C@H]1CC[C@H]2[C@@H]3[C@@H](O)C[C@@H]4C[C@H](O)CC[C@]4(C)[C@H]3CC[C@]12C` [Tauroursodeoxycholic acid], the “Transport activity grading NTCP” value on NTCP [4] (setting [9]) is “+++ (“+++” for values above 1000 pmol/mg protein/30 min)”. On ASBT [8], the “Transport activity grading ASBT (mean uptake)” value was “++ (“++” for values between 500 and 1000)”.
